Laboratory results: article PMC11117716 (Biomolecules, 2024)

Legend:
[1] = human; side effects nausea and vomiting; cited from earlier work
[2] = Plasma pharmacokinetics after oral Posiphen in humans (LC-MS/MS); assay type: in vivo, human; settings: for Tmax: Posiphen PO 80 mg/day (1.1 mg/kg), n = 4
Protocol: This paper describes data from multiple studies.
Samples were frozen and then stored at −80 °C.
(§1) The detection limit was 0.025 ng/mL.

[3] = Plasma pharmacokinetics after oral Posiphen in Beagle dogs (LC-MS/MS); parameters: species or system dog; settings: for Mean plasma concentration: Beagle dogs, Posiphen 20 mg/kg; for Tmax: dog plasma, Posiphen PO 20 mg/kg, n = 12
Protocol: (§2) In rats and dogs, blood samples were centrifuged, and the resultant plasma was separated, and 200 µL (rat) or 400 µL (dog) of plasma was transferred to uniquely labeled pre-chilled polypropylene tubes containing 5 µL (rat) or 10 µL (dog) Dichlorvos spiking solution (nominal concentration of 0.82 mg/mL in MeOH/Water, 20/80, v/v).
as §1

[4] = Plasma pharmacokinetics after oral Posiphen in Sprague Dawley rats (LC-MS/MS); assay type: in vivo, rat
Protocol: as §2, §1

clinical = settings: human, in vivo
Protocol: This paper describes data from multiple studies. The healthy volunteers’ data come from the single ascending and multiple ascending dose study, whereas Alzheimer’s and Parkinson’s patients are represented by the MCI NCT01072812 study, ADCS NCT02925650 study, and AD/PD NCT04524351 study. The evaluations are based on a sample size of n = 4 for each time point.
In humans, plasma and lumbar CSF samples were collected via an indwelling catheter over 12 h (at 0, 1, 1.5, 2, 3, 4, 6, 8, and 12 h) initiated at the same time of day, 1 day prior to the start of dosing, to obtain time-dependent baseline control data, and then at the exact same times immediately after the last dose was administered. Samples were frozen and then stored at −80 °C.
In humans, the bioanalytical method was performed in accordance with current FDA, Industry Guidelines, and OECD Principles. […] The sample analysis was conducted in accordance with current GCP and GLP principles, and the results were presented for pharmacokinetic profiling (Absorption Systems, Exton, PA, USA). Calibration ranges for each analyte ranged from 1000 ng/mL to 1 ng/mL (or ng/g for brain) in plasma, brain, and CSF matrices. The detection limit was 0.025 ng/mL. The following PK parameters were collected for the purpose of this manuscript: maximum concentration (Cmax), time to maximum drug concentration (Tmax), half-life (T1/2), and the Area Under the Curve (AUC).

[5] = both sexes, Beagle, dog, in vivo, po, 20 mg/kg
[6] = both sexes, Sprague Dawley, rat, in vivo, 40 mg/kg
[7] = both sexes, Sprague Dawley, rat, in vivo, po, 40 mg/kg

**Q.** With `CN1CC[C@]2(C)c3cc(OC(=O)Nc4ccccc4)ccc3N(C)C12.O=C(O)C(O)C(O)C(=O)O` (stereo partly drawn) [Posiphen, (3aR)-1,3a, 8-trimethyl-1,2,3,3a, 8,8a-hexahydropyrrolo (2,3-b) indol-5-yl phenylcarbamate tartrate] as the compound, how does the Maximum tolerated dose [1] read?
**A.** The Maximum tolerated dose was 160 mg.

**Q.** What about the “Primary compound in plasma” value ([2]; human plasma) of the same compound?
**A.** The value was “primary compound”.

**Q.** And the Tmax ([2]; human plasma)?
**A.** The Tmax was 1.45 h.

**Q.** And the Cmax ([2]; human, in vivo, po)?
**A.** Its Cmax is 117 ng/mL.

**Q.** What about the Cmax ([2]; human, in vivo, po, 1.1 mg/kg) of the same compound?
**A.** Its Cmax is 120 ng/mL.

**Q.** And the Tmax ([2]; human, in vivo, po, 1.1 mg/kg, human plasma, read-out: Tmax)?
**A.** The Tmax was 1 to 2 h.

**Q.** What about the AUC(0-t) ([2]; human, in vivo, po, 1.1 mg/kg, read-out: AUC (0–8 h)) of the same compound?
**A.** The AUC(0-t) was 310 ng·h/mL.

**Q.** And the AUC(0-t) ([2]; human, in vivo, po, read-out: AUC (0-t))?
**A.** Its AUC(0-t) is 565 ng·h/mL.

**Q.** And the Mean plasma concentration ([3]; 0.25 h)?
**A.** Its Mean plasma concentration is 2.34 ng/mL.

**Q.** And the Mean plasma concentration ([3]; 0.5 h)?
**A.** Its Mean plasma concentration is 241 ng/mL.

**Q.** And the Mean plasma concentration ([3]; 1 h)?
**A.** Its Mean plasma concentration is 326 ng/mL.

**Q.** What about the Mean plasma concentration ([3]; 2 h) of the same compound?
**A.** The Mean plasma concentration was 203 ng/mL.

**Q.** And the Mean plasma concentration ([3]; 4 h)?
**A.** Its Mean plasma concentration is 32.3 ng/mL.

**Q.** And the Mean plasma concentration ([3]; 8 h)?
**A.** The Mean plasma concentration was 4.4 ng/mL.

**Q.** And the Mean plasma concentration ([3]; 12 h)?
**A.** Its Mean plasma concentration is 1.27 ng/mL.

**Q.** And the Cmax [3, 5]?
**A.** The Cmax was 402 ng/mL.

**Q.** And the half-life [3, 5]?
**A.** The half-life was 1.96 h.

**Q.** What about the Tmax ([3]; both sexes, Beagle, dog, in vivo, po, 20 mg/kg, read-out: Tmax) of the same compound?
**A.** Its Tmax is 1 to 2 h.

**Q.** And the AUC(0-t) ([3]; both sexes, Beagle, dog, in vivo, po, 20 mg/kg, read-out: AUC (0–8 h))?
**A.** Its AUC(0-t) is 756 ng·h/mL.

**Q.** And the Tmax ([3]; 20 mg/kg)?
**A.** The Tmax was 1.18 h.

**Q.** What about the concentration at 0.25 h [4, 6] of the same compound?
**A.** Its concentration at 0.25 h is 1090 ng/mL.

**Q.** And the concentration at 1 h [4, 6]?
**A.** Its concentration at 1 h is 771 ng/mL.

**Q.** What about the concentration at 2 h [4, 6] of the same compound?
**A.** Its concentration at 2 h is 381 ng/mL.

**Q.** And the concentration at 4 h [4, 6]?
**A.** Its concentration at 4 h is 243 ng/mL.

**Q.** What about the concentration at 8 h [4, 6] of the same compound?
**A.** Its concentration at 8 h is 234 ng/mL.

**Q.** And the Cmax [4, 7]?
**A.** The Cmax was 1180 ng/mL.

**Q.** What about the half-life [4, 7] of the same compound?
**A.** The half-life was 1.03 h.

**Q.** And the Tmax ([4]; both sexes, Sprague Dawley, rat, in vivo, po, 40 mg/kg, rat plasma, Posiphen PO 40 mg/kg, n = 6)?
**A.** The Tmax was under 1 h.

**Q.** And the AUC(0-t) ([4]; both sexes, Sprague Dawley, rat, in vivo, po, 40 mg/kg, read-out: AUC (0–8 h))?
**A.** The AUC(0-t) was 1140 ng·h/mL.

**Q.** And the “Primary compound in plasma” value ([4]; rat plasma)?
**A.** Its value is “primary compound”.

**Q.** What about the Kp (clinical) of the same compound?
**A.** The Kp was 0.02.

**Q.** What about the half-life (clinical) of the same compound?
**A.** Its half-life is over 12 h.

**Q.** And the AUC(0-t) (clinical; po)?
**A.** The AUC(0-t) was 20.7 ng·h/mL.

**Q.** And the Cmax (clinical; po)?
**A.** The Cmax was 2.23 ng/mL.

**Q.** And the T1/2 (clinical; po)?
**A.** Its T1/2 is 3 h.

**Q.** And the Tmax (clinical; po)?
**A.** The Tmax was 17.26 h.

**Q.** What about the “Tmax (time of Cmax)” value (clinical; po) of the same compound?
**A.** Its value is 3 h.
